Measured values as given in patent US12410164B2, “Heterocyclic compounds and medical use thereof” (FONDAZIONE TELETHON, priority 2018, dated 2025).

Target: F508del-CFTR (Homo sapiens, UniProt P13569, DEL508-508)
Experiment: HS-YFP kinetic fluorescence (iodide quenching rate) assay in CFBE41o− cells
Type: cell-based
Parameters: expressed in transfected cells; host or cells: CFBE41o- cells with expression of F508del-CFTR and HS-YFP (generated as in Sondo et al. 2011)
Conditions: for AI (%) additivity index / AI additivity index: compound at 10 μM plus VX-809; for structure-activity comparison of corrector potency/activity: relative to the analogue
Protocol: CFBE41o- cells, with expression of F508del-CFTR and halogen-sensitive fluorescent protein, were generated as previously described (Sondo E, et al. Am J Physiol. 2011, 301, […]-[…]). For the test, the cells were seeded in 96-well microplates using a culture medium consisting of DMEM and Ham's F12 (1:1) supplemented with 10% foetal bovine serum. After 24 hours from seeding, the cells were treated for another 24 hours with the test compounds dissolved in the culture medium at the desired concentrations. As a negative control, the solvent of the compounds (dimethyl sulfoxide, DMSO) dissolved in the medium with the same dilution ratio (final percentage of DMSO:0.1-0.2%) was used. As a positive control, the corrector VX-809 (Selleck Chemicals, […]) was used at a concentration of 1 μM. After treatment, the medium with the compounds was removed and the cells were stimulated with forskolin (Sigma-Aldrich, F6886) 20 μM plus genistein (Sigma-Aldrich, G6649) 50 μM (in 60 μl of PBS saline) to maximally activate the CFTR channels present in the membrane. In a microplate reader (FLUOstar-Omega, BMG) the fluorescence of the cells in each well was read for 14 seconds, with an injection of 165 μl of a iodide-enriched saline (modified PBS where NaCl, 137 mM, has been replaced with the same concentration of NaI). The iodide transport activity in each well was evaluated by subtraction of the background fluorescence (measured in a well without cells), subsequent normalization with respect to the initial fluorescence and finally by interpolation of the fluorescence quenching phase with an exponential function that allows the derivation of the maximum slope (quenching rate, QR). The activity of the synthesized compounds was initially evaluated on the CFBE41o- cell line with expression of the mutated F508del-CFTR protein described above (Sondo E, et al. Am J Physiol. 2011, 301, […]-[…]). For this purpose, a functional assay based on the fluorescent YFP protein sensitive to halides, HS-YFP, was used (Galietta L J, et al. J Biol Chem. 2001, 276, 19723-19728). The fluorescence of the HS-YFP protein is turned off by iodide. Therefore, if exposed to a solution containing iodide, cells with HS-YFP expression show a quenching speed of the fluorescence which depends on the presence and activity of anionic channels. Under control conditions, the mutated CFTR protein presents a serious defect of stability and maturation, so it remains trapped in the endoplasmic reticulum not reaching the cell surface in enough quantity. In the HS-YFP-based assay, this defect results in a low anion transport capacity and therefore in a low quenching rate (QR). Treatment for a prolonged time (e.g. 24 hours) with a corrector determines an improvement in protein maturation with an increase in the number of CFTR channels present in the membrane and therefore an increase in the flux of iodide and QR. In a first phase, the authors screened about 200 heterocyclic molecules with various nitrogenated tricyclic scaffolds. Conditions previously described have been used for screening (Sondo E, et al. Am J Physiol. 2011, 301, […]-[…]) and reported herein in the Materials and Methods section. A threshold equal to the average value plus three times the standard deviation of the QR of wells without compounds (only DMSO in the culture medium) was used as a criterion for the selection of active compounds.

[1] = Table 1, (QRTOT − QRVX)/QRVX, HS-YFP assay

F508del-CFTR, sequence (P13569 with tags, fused parts or gaps DEL508-508): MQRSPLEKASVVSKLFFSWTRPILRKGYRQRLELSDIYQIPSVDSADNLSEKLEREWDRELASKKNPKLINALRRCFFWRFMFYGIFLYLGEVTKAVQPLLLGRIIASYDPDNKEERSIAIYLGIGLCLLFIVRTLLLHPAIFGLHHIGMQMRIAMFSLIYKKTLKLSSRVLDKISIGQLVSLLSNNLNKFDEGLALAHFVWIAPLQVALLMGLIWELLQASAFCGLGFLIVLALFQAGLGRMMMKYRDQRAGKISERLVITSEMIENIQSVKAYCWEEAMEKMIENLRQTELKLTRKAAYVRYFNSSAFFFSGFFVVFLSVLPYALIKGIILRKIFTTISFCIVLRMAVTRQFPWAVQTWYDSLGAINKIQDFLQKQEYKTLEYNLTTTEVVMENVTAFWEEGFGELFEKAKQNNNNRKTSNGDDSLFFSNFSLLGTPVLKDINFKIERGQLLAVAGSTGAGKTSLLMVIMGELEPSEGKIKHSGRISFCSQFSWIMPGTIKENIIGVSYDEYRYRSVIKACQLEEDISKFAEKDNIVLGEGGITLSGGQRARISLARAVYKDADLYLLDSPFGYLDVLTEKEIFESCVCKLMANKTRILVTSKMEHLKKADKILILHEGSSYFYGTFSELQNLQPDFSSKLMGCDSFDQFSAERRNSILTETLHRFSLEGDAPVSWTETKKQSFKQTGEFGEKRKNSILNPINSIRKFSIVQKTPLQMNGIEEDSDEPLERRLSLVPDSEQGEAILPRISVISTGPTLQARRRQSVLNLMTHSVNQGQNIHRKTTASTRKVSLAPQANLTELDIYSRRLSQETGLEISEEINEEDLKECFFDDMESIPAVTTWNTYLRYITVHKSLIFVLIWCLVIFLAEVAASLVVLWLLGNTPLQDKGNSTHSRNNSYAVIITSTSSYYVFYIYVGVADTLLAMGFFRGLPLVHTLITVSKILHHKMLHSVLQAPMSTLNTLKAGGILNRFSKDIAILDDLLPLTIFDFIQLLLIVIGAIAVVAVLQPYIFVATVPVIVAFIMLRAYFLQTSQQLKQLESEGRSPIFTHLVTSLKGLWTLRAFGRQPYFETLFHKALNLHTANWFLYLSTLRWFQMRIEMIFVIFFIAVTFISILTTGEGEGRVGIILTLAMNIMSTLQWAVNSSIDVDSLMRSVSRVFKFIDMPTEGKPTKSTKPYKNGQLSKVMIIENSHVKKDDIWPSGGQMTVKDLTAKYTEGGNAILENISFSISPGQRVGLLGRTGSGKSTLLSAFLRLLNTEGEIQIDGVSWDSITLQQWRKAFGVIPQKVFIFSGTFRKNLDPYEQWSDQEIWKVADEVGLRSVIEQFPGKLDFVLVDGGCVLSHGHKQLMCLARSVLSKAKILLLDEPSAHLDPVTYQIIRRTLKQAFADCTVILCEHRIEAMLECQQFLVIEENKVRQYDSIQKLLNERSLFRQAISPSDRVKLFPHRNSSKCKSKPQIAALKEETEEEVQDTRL

SMILES | AI (%) additivity index [1] [%] | other results
Cc1ccc(Cn2c(C(=O)O)c(Br)c3c2-c2[nH]c(=O)c(S(=O)(=O)c4ccccc4)cc2CC3)cc1C [PP095, 7-(Benzenesulfonyl)-3-bromo-1-[(3,4-dimethylphenyl)methyl]-8-oxo-4,5,8,9-tetrahydro-1H-pyrrolo[3,2-h]quinoline-2-carboxylic acid] | 11 | –
Cc1cccc(Cn2c(C(=O)O)c(Br)c3c2-c2[nH]c(=O)c(S(=O)(=O)c4ccccc4)cc2CC3)c1 [PP081, 7-(Benzenesulfonyl)-3-bromo-1-[(3-methylphenyl)methyl]-8-oxo-4,5,8,9-tetrahydro-1H-pyrrolo[3,2-h]quinoline-2-carboxylic acid] | 20 | –
CCOC(=O)c1cc2c(n1Cc1ccc(C)cc1)-c1[nH]c(=O)c(S(=O)(=O)c3ccccc3)cc1CCC2 [PP048, Ethyl 8-(benzenesulfonyl)-1-[(4-methylphenyl)methyl]-9-oxo-1,4,5,6,9,10-hexahydropyrrolo[3′,2′:6,7]cyclohepta[1,2-b]pyridine-2-carboxylate] | – | AI additivity index (Table 2, (QRTOT − QRVX)/QRVX): 22%
CCOC(=O)c1nn(Cc2ccc(Br)cc2)c2c1CCc1cc(S(=O)(=O)c3ccccc3)c(=O)[nH]c1-2 [PZ5, Ethyl 7-(benzenesulfonyl)-1-[(4-bromophenyl)methyl]-8-oxo-4,5,8,9-tetrahydro-1H-pyrazolo[4,3-h]quinoline-3-carboxylate] | – | AI (%) additivity index (Table 6, (QRTOT-QRVX)/QRVX): 64%
CCOC(=O)c1cc2ccc3cc(S(=O)(=O)c4ccccc4)c(=O)[nH]c3c2n1Cc1ccc(C)cc1 [14 (PP058), Ethyl 1-(4-methylbenzyl)-8-oxo-7-(phenylsulfonyl)-8,9-dihydro-1H-pyrrolo[3,2-h]quinoline-2-carboxylate] | – | AI additivity index (Table 1a, (QRTOT − QRVX)/QRVX): 177%
CCOC(=O)c1c(Br)c2c(n1Cc1cccc(C)c1)-c1nc(NS(=O)(=O)c3ccccc3)ncc1CC2 [SVQ12, Ethyl 2-[(benzenesulfonyl)amino]-7-bromo-9-[(3-methylphenyl)methyl]-6,9-dihydro-5H-pyrrolo[3,2-h]quinazoline-8-carboxylate] | – | AI additivity index (Table 3, (QRTOT-QRVX)/QRVX): 152%
Cc1ccc(Cn2c(C(=O)NC(C)C)c(Br)c3c2-c2[nH]c(=O)c(S(=O)(=O)c4ccccc4)cc2CC3)cc1 [PP086, 7-(Benzenesulfonyl)-3-bromo-1-[(4-methylphenyl)methyl]-8-oxo-N-(propan-2-yl)-4,5,8,9-tetrahydro-1H-pyrrolo[3,2-h]quinoline-2-carboxamide] | 116 | –
CCOC(=O)c1c(Br)c2c(n1Cc1ccc(C)cc1)-c1[nH]c(=O)c(S(=O)(=O)c3ccccc3)cc1CCC2 [PP056, Ethyl 8-(benzenesulfonyl)-3-bromo-1-[(4-methylphenyl)methyl]-9-oxo-1,4,5,6,9,10-hexahydropyrrolo[3′,2′:6,7]cyclohepta[1,2-b]pyridine-2-carboxylate] | – | AI additivity index (Table 2, (QRTOT − QRVX)/QRVX): 60%; structure-activity comparison of corrector potency/activity: more potent than the non-halogenated analogues
CC(C)OC(=O)c1ccc2n1CCc1cnc(NC3CCCC3)nc1-2 [QZQ20, Propan-2-yl 2-(cyclopentylamino)-5,6-dihydropyrimido[5,4-g]indolizine-8-carboxylate] | – | AI (%) additivity index (Table 5, (QRTOT-QRVX)/QRVX): 5%
O=C(NC1CC1)c1c(Br)c2c(n1Cc1ccc(Br)cc1)-c1[nH]c(=O)c(S(=O)(=O)c3ccccc3)cc1CC2 [PP099, 7-(Benzenesulfonyl)-3-bromo-1-[(4-bromophenyl)methyl]-N-cyclopropyl-8-oxo-4,5,8,9-tetrahydro-1H-pyrrolo[3,2-h]quinoline-2-carboxamide] | 82 | –
CCOC(=O)c1c(Br)c2c(n1Cc1ccc(C)cc1)-c1[nH]c(=O)c(S(C)(=O)=O)cc1CC2 [PP036, Ethyl 3-bromo-7-(metansulfonyl)-1-[(4-methylphenyl)methyl]-8-oxo-4,5,8,9-tetrahydro-1H-pyrrolo[3,2-h]quinoline-2-carboxylate] | 23 | –
CCOC(=O)c1c(Br)cc2n1CCCc1cc(S(=O)(=O)c3ccccc3)c(=O)[nH]c1-2 [QZN6, Ethyl 3-(benzenesulfonyl)-10-bromo-2-oxo-1,5,6,7-tetrahydro-2H-pyrido[2,3-c]pyrrolo[1,2-a]azepine-9-carboxylate] | – | AI (%) additivity index (Table 4, (QRTOT − QRVX)/QRVX): 136%
CCOC(=O)c1cc2c(n1Cc1ccc(C)cc1)-c1nc(NS(=O)(=O)c3ccccc3)ncc1CC2 [SVQ9, Ethyl 2-[(benzenesulfonyl)amino]-9-[(4-methylphenyl)methyl]-6,9-dihydro-5H-pyrrolo[3,2-h]quinazoline-8-carboxylate] | – | AI additivity index (Table 3, (QRTOT-QRVX)/QRVX): 98%

Continued, in another order:

AI (%) additivity index [1] [%] | SMILES | other results
46 | CCOC(=O)c1c(Br)c2c(n1Cc1ccc(Cl)cc1)-c1[nH]c(=O)c(S(=O)(=O)c3ccccc3)cc1CC2 [PP029, Ethyl 3-bromo 1-(4-chlorobenzyl)-8-oxo-7-(phenylsulfonyl)-4,5,8,9-tetrahydro-1H-pyrrolo[3,2-h]quinoline-2-carboxylate] | –
101 | CCOC(=O)c1cc2c(n1Cc1ccc(C(F)(F)F)cc1)-c1[nH]c(=O)c(S(=O)(=O)c3ccccc3)cc1CC2 [PP070, Ethyl 7-(benzenesulfonyl)-8-oxo-1-{[4-(trifluoromethyl)phenyl]methyl}-4,5,8,9-tetrahydro-1H-pyrrolo[3,2-h]quinoline-2-carboxylate] | –
40 | CCOC(=O)c1cc2c(n1Cc1ccc(C)cc1C)-c1[nH]c(=O)c(S(=O)(=O)c3ccccc3)cc1CC2 [PP021, Ethyl 7-(benzenesulfonyl)-1-[(2,4-dimethylphenyl)methyl]-8-oxo-4,5,8,9-tetrahydro-1H-pyrrolo[3,2-h]quinoline-2-carboxylate] | –
95 | CCOC(=O)c1cc2c(n1C)-c1[nH]c(=O)c(S(=O)(=O)c3ccccc3)cc1CC2 [PP010] | structure-activity comparison of corrector potency/activity: causes a reduction in activity
284 | Cc1cccc(Cn2c(C(=O)OC(C)C)cc3c2-c2[nH]c(=O)c(S(=O)(=O)c4ccccc4)cc2CC3)c1 [PP103, Propan-2-yl 7-(benzenesulfonyl)-1-[(3-methylphenyl)methyl]-8-oxo-4,5,8,9-tetrahydro-1H-pyrrolo[3,2-h]quinoline-2-carboxylate] | –
203 | CCOC(=O)c1cc2c(n1Cc1ccc(Cl)cc1)-c1[nH]c(=O)c(S(=O)(=O)c3ccccc3)cc1CC2 [PP017, Ethyl 1-(4-chlorobenzyl)-8-oxo-7-(phenylsulfonyl)-4,5,8,9-tetrahydro-1H-pyrrolo[3,2-h]quinoline-2-carboxylate] | –
178 | CCOC(=O)c1cc2c(n1Cc1ccc(C)c(C)c1)-c1[nH]c(=O)c(S(=O)(=O)c3ccccc3)cc1CC2 [PP025, Ethyl 7-(benzenesulfonyl)-1-[(3,4-dimethylphenyl)methyl]-8-oxo-4,5,8,9-tetrahydro-1H-pyrrolo[3,2-h]quinoline-2-carboxylate] | –
202 | CCOC(=O)c1c(I)c2c(n1Cc1ccc(C)cc1)-c1[nH]c(=O)c(S(=O)(=O)c3ccccc3)cc1CC2 [PP077, Ethyl 7-(benzenesulfonyl)-3-iodo-1-[(4-methylphenyl)methyl]-8-oxo-4,5,8,9-tetrahydro-1H-pyrrolo[3,2-h]quinoline-2-carboxylate] | –
146 | CCOC(=O)c1c(Br)c2c(n1Cc1ccc(I)cc1)-c1[nH]c(=O)c(S(=O)(=O)c3ccccc3)cc1CC2 [PP063, Ethyl 7-(benzenesulfonyl)-3-bromo-1-[(4-iodophenyl)methyl]-8-oxo-4,5,8,9-tetrahydro-1H-pyrrolo[3,2-h]quinoline-2-carboxylate] | –
